Results from ChEMBL document CHEMBL1130445, “The synthesis of CD-ring modified 1,25-dihydroxy vitamin D analogues: Six-membered D-ring analogues I” (1997).

How the values were obtained:
MCF7 = test: Biological evaluation in vitro on MCF-7 cell line; type: functional, Homo sapiens; parameters: reference not given here
Mus musculus = test: The in vivo effect was tested in vitamin D-deplete normal NMRI mice by measuring calcium levels in serum.; type: functional; parameters: reference not given here
Keratinocyte = test: Biological evaluation in vitro on keratinocytes; type: functional; parameters: reference not given here
HL-60 = test: Biological evaluation in vitro on HL-60 cell line; type: functional, Homo sapiens; parameters: reference not given here
[1] = target: T1, Vitamin D3 receptor (Sus scrofa) (UniProt A3RGC1); test: Inhibition of 1-alpha,25(OH)2 D3 binding to pig intestinal mucosa Vitamin D3 receptor (VDR); type: tissue-based
T1 sequence (whole entry): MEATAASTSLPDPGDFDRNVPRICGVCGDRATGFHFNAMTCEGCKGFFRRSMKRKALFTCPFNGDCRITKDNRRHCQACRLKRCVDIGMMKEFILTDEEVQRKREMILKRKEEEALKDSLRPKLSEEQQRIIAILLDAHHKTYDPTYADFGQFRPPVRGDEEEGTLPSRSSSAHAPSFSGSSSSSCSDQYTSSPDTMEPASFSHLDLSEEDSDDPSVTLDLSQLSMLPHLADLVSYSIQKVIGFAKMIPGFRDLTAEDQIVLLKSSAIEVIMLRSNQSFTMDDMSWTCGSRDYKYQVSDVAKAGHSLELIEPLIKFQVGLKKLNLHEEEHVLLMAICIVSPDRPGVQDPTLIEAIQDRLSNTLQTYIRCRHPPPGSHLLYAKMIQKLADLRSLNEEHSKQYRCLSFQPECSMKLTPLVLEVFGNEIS

MG-63 = test: Biological evaluation in vitro on MG-63 cell line; type: functional, Homo sapiens; parameters: reference not given here

| Compound | Biological evaluation (MCF7) | Biological evaluation (Mus musculus) | Biological evaluation (Keratinocyte) | Biological evaluation (HL-60) | Relative affinity [1] | Biological evaluation (MG-63) |
| --- | --- | --- | --- | --- | --- | --- |
| C=C1C(=CC=C[C@@H]2CCC[C@H]([C@@H](C)CCCC(C)(C)O)C2(C)C)C[C@@H](O)C[C@@H]1O | 0 | 0.1 | 8 | 1 | 0.5 | 1 |
| C=C1C(=CC=C[C@H]2CCC[C@H]([C@H](C)CCCC(C)(C)O)C2(C)C)C[C@@H](O)C[C@@H]1O | 1 | <0.1 | 30 | 2 | 1 | 3 |
| C=C1C(=CC=C[C@H]2CCC[C@H]([C@@H](C)CCCC(C)(C)O)C2(C)C)C[C@@H](O)C[C@@H]1O | 0 | <0.1 | 8 | 1 | 0.9 | 1 |
| C=C1C(=CC=C[C@H]2CCC[C@H]([C@H](C)CCCCC(O)(CC)CC)C2(C)C)C[C@@H](O)C[C@@H]1O | 3000 | 20 | 1500 | 600 | 60 | 800 |
| C=C1C(=CC=C[C@@H]2CCC[C@H]([C@H](C)CCCC(C)(C)O)C2(C)C)C[C@@H](O)C[C@@H]1O | 300 | 4 | 300 | 90 | 125 | 300 |
